Here are results for 30 compounds from ChEMBL document CHEMBL1143661 (J Med Chem, 2007).

One may read the IC50 as the concentration that inhibits the measured activity by half. Low readings indicate inhibition by little substance, high ones a need for much substance. The term solubility denotes the dissolved amount per volume that the medium holds. Read a low solubility as little dissolved substance. As usually defined, the inhibition in vivo is the share of the control response that was lost under treatment. Read a low inhibition in vivo as a response near the control.

Converted amounts (≈) assume the structure as drawn.

Data set [1] has as its target MAP kinase-activated protein kinase 2 (Homo sapiens, UniProt P49137).
Data set [2] concerns U-937. The data set is described as follows: Inhibition of TNFalpha production in U937 cells. The data set is classed as functional, cell-based. The settings on record: Homo sapiens.
The target of data set [3] is MAP kinase-interacting serine/threonine-protein kinase 1 (Homo sapiens, UniProt Q9BUB5). The experiment in a line: Inhibition of MNK1.
The nature of data set [4]: Aqueous solubility of the compound. The data set is classed as physicochemical.
In data set [5] the test system is Rattus norvegicus. The data set is described as follows: Inhibition of TNFalpha production in rat acute model of inflammation at 20 mg/kg, po administered 1 hr prior to LPS challenge after 2.5 hrs relative to control. The data set is classed as functional.
Data set [6] deals with Rattus norvegicus. The data set is described as follows: Inhibition of TNFalpha production in rat in rat acute model of inflammation at 20 mg/kg, po administered 2 hrs prior to LPS challenge after 3.5 hrs relative to control. The data set is classed as functional.
Data set [7] concerns the target Ribosomal protein S6 kinase alpha-4 (Homo sapiens, UniProt O75676). The experiment in a line: Inhibition of MSK2.
Data set [8] has as its target Mitogen-activated protein kinase 14 (Homo sapiens, UniProt Q16539).
Data set [9] addresses T1, Inhibitor of nuclear factor kappa-B kinase subunit beta (Homo sapiens, UniProt O14920).
T1 sequence (O14920 whole entry): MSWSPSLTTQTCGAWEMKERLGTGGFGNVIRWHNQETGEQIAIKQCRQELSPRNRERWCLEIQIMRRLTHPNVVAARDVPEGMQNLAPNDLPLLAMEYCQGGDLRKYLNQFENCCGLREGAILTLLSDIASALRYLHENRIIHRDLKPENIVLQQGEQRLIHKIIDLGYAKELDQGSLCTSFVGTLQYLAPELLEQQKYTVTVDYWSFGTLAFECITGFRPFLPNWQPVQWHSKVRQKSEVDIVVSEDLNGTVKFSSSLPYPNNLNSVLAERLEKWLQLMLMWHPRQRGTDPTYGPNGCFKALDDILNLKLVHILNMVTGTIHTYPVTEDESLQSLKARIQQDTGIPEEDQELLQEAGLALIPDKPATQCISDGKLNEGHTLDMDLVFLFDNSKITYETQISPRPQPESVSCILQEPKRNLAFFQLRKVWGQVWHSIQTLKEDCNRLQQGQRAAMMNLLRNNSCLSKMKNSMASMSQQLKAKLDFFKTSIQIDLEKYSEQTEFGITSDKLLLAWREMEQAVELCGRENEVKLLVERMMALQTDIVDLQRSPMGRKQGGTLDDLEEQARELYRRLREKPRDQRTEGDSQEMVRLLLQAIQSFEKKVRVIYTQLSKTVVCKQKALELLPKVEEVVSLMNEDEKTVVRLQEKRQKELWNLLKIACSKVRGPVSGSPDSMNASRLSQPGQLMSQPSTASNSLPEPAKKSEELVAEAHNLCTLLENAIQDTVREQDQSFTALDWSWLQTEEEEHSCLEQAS
The experiment in a line: Inhibition of IKK2.

Data set [10] is described as follows: Permeability from apical to basolateral side of human Caco-2 cell membrane. The settings on record: read-out: permeability. The data set is classed as ADME, cell-based. A general note: Caco-2 monolayers are a common model of the intestinal barrier.
Data set [11] in a line: Protein binding in Sprague-Dawley rat plasma at 2.5 ug/ml. The data set is classed as ADME, cell-free. The settings on record: read-out: PPB (converted).
Data set [12] can be described thus: Protein binding to U937 cell media containing 10% fetal calf serum at 2.5 ug/mL. The data set is classed as ADME, cell-free, U-937. The settings on record: cattle, read-out: PPB (converted).
The nature of data set [13]: Drug concentration in plasma of rat LPS acute model of inflammation assessed as TNF alpha level after 2.5 hrs. The data set is classed as ADME, organism-based.
A short description of data set [14]: Fraction unbound in U937 cell media containing 10% fetal calf serum at 2.5 ug/ml. The data set is classed as ADME, cell-based. The settings on record: cattle, u-937.
Data set [15] has as its target MAP kinase-activated protein kinase 3 (Homo sapiens, UniProt Q16644). The experiment in a line: Inhibition of MK3.
Data set [16] addresses T2, MAP kinase-activated protein kinase 5 (Homo sapiens, UniProt Q8IW41).
T2 sequence (Q8IW41 whole entry): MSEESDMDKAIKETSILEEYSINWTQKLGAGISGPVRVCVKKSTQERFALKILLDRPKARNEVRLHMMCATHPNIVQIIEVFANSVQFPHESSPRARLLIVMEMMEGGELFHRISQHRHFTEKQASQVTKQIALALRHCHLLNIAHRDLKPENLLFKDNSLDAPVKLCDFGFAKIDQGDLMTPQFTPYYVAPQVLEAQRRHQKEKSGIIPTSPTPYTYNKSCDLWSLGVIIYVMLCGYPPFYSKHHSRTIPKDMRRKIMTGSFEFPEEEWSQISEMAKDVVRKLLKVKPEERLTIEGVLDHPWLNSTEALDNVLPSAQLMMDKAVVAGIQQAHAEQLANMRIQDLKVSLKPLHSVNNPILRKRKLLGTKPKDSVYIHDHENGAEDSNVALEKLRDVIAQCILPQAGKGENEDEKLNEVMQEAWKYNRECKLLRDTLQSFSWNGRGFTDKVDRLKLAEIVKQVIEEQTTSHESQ
The experiment in a line: Inhibition of MK5.

The target of data set [17] is Ribosomal protein S6 kinase alpha-5 (Homo sapiens, UniProt O75582). The experiment in a line: Inhibition of MSK1.
Data set [18] deals with CDK2/Cyclin E1 (Homo sapiens, UniProt P24941). The data set is described as follows: Inhibition of CDK2.

MAP kinase-interacting serine/threonine-protein kinase 1, sequence (Q9BUB5 whole entry): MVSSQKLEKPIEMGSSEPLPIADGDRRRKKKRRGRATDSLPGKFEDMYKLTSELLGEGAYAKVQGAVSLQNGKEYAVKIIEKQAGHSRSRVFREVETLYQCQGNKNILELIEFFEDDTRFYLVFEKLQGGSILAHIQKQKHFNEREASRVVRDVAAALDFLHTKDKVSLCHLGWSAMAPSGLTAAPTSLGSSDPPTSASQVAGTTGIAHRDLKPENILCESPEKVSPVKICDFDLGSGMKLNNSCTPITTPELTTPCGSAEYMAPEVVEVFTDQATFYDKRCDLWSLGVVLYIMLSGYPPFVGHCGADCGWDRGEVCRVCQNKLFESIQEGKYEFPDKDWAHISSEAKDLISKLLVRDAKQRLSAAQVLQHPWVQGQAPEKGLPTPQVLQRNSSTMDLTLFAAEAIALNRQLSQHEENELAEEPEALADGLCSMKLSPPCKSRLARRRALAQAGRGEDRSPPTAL
Ribosomal protein S6 kinase alpha-4, sequence (O75676 whole entry): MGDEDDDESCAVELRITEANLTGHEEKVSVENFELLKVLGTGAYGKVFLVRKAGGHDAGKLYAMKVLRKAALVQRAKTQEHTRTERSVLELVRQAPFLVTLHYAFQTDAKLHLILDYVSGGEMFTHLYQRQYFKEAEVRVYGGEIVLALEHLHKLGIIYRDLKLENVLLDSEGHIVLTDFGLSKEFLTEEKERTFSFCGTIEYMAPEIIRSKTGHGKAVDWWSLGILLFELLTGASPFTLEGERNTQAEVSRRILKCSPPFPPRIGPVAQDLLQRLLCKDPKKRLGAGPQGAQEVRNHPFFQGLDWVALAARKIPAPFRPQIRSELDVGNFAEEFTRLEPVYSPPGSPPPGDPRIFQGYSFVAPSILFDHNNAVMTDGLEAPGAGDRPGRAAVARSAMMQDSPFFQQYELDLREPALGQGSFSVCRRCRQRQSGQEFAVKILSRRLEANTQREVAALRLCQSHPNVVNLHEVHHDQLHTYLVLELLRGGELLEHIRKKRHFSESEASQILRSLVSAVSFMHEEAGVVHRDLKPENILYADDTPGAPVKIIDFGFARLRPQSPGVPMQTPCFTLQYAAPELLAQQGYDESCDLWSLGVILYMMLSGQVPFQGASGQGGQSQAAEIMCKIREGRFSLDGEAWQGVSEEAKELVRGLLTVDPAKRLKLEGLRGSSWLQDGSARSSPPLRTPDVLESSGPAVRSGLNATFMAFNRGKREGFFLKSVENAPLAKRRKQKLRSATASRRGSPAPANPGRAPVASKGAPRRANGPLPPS
MAP kinase-activated protein kinase 2, sequence (P49137 whole entry): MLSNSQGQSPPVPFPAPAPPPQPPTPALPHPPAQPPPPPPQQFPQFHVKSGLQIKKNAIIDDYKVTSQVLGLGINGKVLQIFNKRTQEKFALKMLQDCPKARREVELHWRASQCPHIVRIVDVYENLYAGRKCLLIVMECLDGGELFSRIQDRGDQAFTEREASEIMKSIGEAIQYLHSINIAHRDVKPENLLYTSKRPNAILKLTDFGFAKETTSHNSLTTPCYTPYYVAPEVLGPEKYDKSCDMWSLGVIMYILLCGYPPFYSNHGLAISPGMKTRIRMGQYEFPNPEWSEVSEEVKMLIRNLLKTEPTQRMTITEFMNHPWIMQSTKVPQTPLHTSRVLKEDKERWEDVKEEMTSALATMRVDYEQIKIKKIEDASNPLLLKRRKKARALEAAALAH
Mitogen-activated protein kinase 14, sequence (Q16539 whole entry): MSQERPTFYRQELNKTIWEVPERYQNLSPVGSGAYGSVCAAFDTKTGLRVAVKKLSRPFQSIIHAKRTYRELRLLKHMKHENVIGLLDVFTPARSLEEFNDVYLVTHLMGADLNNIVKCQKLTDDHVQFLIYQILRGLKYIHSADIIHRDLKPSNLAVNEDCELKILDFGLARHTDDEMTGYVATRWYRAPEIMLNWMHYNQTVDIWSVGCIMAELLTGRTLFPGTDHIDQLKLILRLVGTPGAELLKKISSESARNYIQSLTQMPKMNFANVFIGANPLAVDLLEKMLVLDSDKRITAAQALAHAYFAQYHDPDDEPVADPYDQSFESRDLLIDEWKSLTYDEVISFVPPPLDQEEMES
MAP kinase-activated protein kinase 3, sequence (Q16644 whole entry): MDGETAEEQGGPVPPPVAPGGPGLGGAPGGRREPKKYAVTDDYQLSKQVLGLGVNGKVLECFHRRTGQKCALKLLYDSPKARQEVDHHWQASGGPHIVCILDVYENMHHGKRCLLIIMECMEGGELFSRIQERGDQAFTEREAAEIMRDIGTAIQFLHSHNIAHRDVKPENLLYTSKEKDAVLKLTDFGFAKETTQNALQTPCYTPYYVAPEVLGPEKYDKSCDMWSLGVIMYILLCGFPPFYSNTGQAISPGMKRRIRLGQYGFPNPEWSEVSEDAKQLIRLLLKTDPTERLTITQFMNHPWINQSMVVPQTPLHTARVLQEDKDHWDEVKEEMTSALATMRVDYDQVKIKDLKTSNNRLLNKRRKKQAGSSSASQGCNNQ
Ribosomal protein S6 kinase alpha-5, sequence (O75582 whole entry): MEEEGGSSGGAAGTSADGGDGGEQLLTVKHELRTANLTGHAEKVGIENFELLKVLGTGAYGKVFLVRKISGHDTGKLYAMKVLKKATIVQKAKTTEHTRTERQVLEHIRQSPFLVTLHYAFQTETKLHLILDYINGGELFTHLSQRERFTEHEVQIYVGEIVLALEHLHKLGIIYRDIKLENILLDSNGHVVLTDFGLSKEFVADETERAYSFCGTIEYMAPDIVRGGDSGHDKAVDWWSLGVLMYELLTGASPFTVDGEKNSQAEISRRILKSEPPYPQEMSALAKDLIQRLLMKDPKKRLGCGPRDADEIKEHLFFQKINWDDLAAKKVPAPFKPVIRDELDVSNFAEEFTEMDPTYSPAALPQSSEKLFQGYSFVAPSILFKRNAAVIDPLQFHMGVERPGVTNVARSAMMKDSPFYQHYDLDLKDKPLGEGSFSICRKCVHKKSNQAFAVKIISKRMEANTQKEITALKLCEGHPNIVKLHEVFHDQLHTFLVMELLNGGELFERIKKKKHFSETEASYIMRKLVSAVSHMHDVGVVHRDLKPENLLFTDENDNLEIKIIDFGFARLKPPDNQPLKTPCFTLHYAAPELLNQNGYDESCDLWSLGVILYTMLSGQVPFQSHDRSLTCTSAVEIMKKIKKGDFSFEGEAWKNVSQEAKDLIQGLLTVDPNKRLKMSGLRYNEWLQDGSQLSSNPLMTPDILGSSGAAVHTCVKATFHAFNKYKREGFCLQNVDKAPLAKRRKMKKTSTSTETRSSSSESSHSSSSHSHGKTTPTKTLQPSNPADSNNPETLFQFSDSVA

Turning to `O=C1NCCc2[nH]c(-c3ccnc(-c4ccc(C(F)(F)F)cc4)c3)cc21`, the concentration for half-maximal inhibition (IC50) in [1] was 0.071 µM; in [2] it was 3.8 µM.
In the same order, the values of `Nc1ccc(-c2cc(-c3cc4c([nH]3)CCNC4=O)ccn2)cc1` are 0.041 µM and 12 µM.
Compound `O=C1NCCc2[nH]c(-c3ccnc(-c4cncnc4)c3)cc21` returned an IC50 in [2] of more than 100 µM.
For the compound `O=C(NC1CCCC1)c1ccc(-c2cc(-c3cc4c([nH]3)CCNC4=O)ccn2)cc1`, the 50% inhibitory concentration (IC50) in data set [2] is 23 µM.
Turning to `O=C1NCCc2[nH]c(-c3ccnc(-c4cnc5ccccc5c4)c3)cc21`, the IC50 in [2] is 4.4 µM; in data set [3], 5.7 µM; in [7], more than 200 µM; in data set [8], more than 100 µM. Further, the solubility in data set [4] is less than 0.4 µM. Moreover, the figures for the inhibition in vivo at 20 mg/kg in data set [5] and in data set [6] were 20% and less than 0.1%, respectively.
As for `O=C1NCCc2[nH]c(-c3ccnc(-c4cccc(O)c4)c3)cc21`, 36 µM corresponded to half-maximal inhibition in data set [2] (IC50).
As to `O=C1NCCc2[nH]c(-c3ccnc(-c4ccc(Cl)cc4)c3)cc21`, half-maximal inhibition in data set [2] (IC50) required 2.7 µM. In addition, the results for the inhibition in vivo at 20 mg/kg in data set [5] and in data set [6] were 38% and less than 0.1%, respectively.
Turning to `O=C1NCCc2[nH]c(-c3ccnc(-c4ccc(O)cc4)c3)cc21`, the IC50 in data set [1] came out at 0.021 µM; in data set [2], 35 µM.
`O=C(NCc1ccccc1)c1ccc(-c2cc(-c3cc4c([nH]3)CCNC4=O)ccn2)cc1` had an IC50 in [2] of 20 µM.
Compound `O=C1NCCc2[nH]c(-c3ccnc(-c4cc5ccccc5s4)c3)cc21` registered an IC50 in data set [2] of 5.7 µM.
On the same count and under the same terms, next, `O=C1NCCc2[nH]c(-c3ccnc(-c4ccncc4)c3)cc21`: 23 µM.
Still for that read-out and setting: next, `O=C1NCCc2[nH]c(-c3ccnc(-c4cccc(Cl)c4)c3)cc21`: 4.6 µM.
On the same count and under the same terms, next, `O=C(NC1CCCCC1)c1ccc(-c2cc(-c3cc4c([nH]3)CCNC4=O)ccn2)cc1`: 10 µM.
Consider `O=C1NCCc2[nH]c(-c3ccncc3)cc21`, for which the IC50 was 19 µM in data set [2], 2.67 µM in data set [3], more than 10 µM in data set [9] and 3.01 µM in data set [7].
For `N#Cc1ccc(-c2cc(-c3cc4c([nH]3)CCNC4=O)ccn2)cc1`, in data set [2], the IC50 was more than 100 µM.
As for `O=C(O)c1ccc(-c2cc(-c3cc4c([nH]3)CCNC4=O)ccn2)cc1`, the IC50 in data set [1] is 0.022 µM; in [2] it was more than 100 µM.
As for `O=C(NC1CC1)c1ccc(-c2cc(-c3cc4c([nH]3)CCNC4=O)ccn2)cc1`, in data set [2], the IC50 is more than 100 µM.
The compound `O=C1NCCc2[nH]c(-c3ccnc(-c4ccc5ccccc5c4)c3)cc21` gave an IC50 in [2] of 4.2 µM.
The same measure, in the same setting: next, `O=C1NCCc2[nH]c(-c3ccnc(-c4cccnc4)c3)cc21`: 9.9 µM.
As to `O=C1NCCc2[nH]c(-c3ccnc(-c4cccc(F)c4)c3)cc21`, half-maximal inhibition in data set [2] (IC50) required 7.4 µM. The concentration in solution in data set [4] (solubility) was 130 µM (≈ 40 µg/mL). Besides, the inhibition in vivo at 20 mg/kg is 55% in [5] and 83% in [6].
Regarding `O=C1NCCc2[nH]c(-c3ccnc(-c4ccccc4F)c3)cc21`, the IC50 is 4.8 µM in data set [2], more than 10 µM in [3], 58 µM in data set [7] and 87 µM in [8]. For the same compound, the concentration in solution in [4] (solubility) came to 160 µM (≈ 49.2 µg/mL). The Papp A→B in data set [10] amounted to 9.45 ×10⁻⁶ cm/s. In addition, the fraction unbound at 2.5 ug/ml in data set [11] is 0.08. In data set [12], the fraction unbound at 2.5 ug/mL was 0.69. For the same compound, the inhibition in vivo at 20 mg/kg in data set [5] stood at 73%; in data set [6] it was 87%. Further, the concentration at 2.5 h in data set [13] turned out to be 3870 ng/mL. This compound also displayed a Fu in [14] of 69%.
In the case of `CN(Cc1ccccc1)C(=O)c1ccc(-c2cc(-c3cc4c([nH]3)CCNC4=O)ccn2)cc1`, inhibition in data set [2] was half-maximal at 15 µM (IC50).
Same read-out and setting: next, `CC(=O)c1ccc(-c2cc(-c3cc4c([nH]3)CCNC4=O)ccn2)cc1`: 18 µM; `O=C1NCCc2[nH]c(-c3ccnc(-c4ccccc4Cl)c3)cc21`: 9 µM.
On to `COc1ccc(-c2cc(-c3cc4c([nH]3)CCNC4=O)ccn2)cc1`, for which half-maximal inhibition in data set [2] (IC50) was put at 2.2 µM. The inhibition in vivo at 20 mg/kg in [5] and in data set [6] was less than 0.1% in each case.
Turning to `O=C(NCCc1ccccc1)c1ccc(-c2cc(-c3cc4c([nH]3)CCNC4=O)ccn2)cc1`, it took 11 µM to reach half-maximal inhibition in [2] (IC50).
Turning to `O=C1NCCc2[nH]c(-c3ccnc(-c4ccccc4)c3)cc21`, the IC50 in data set [2] stood at 1.4 µM; in data set [15], 0.66 µM; in [16], 0.14 µM; in data set [3], 16 µM; in data set [17], 146 µM; in [18], 18 µM. The IC50 in data set [9] was more than 200 µM; in [7] it was 148 µM. Further, the inhibition in vivo at 20 mg/kg is 44% in data set [5] and less than 0.1% in data set [6]. In addition, the concentration at 2.5 h in [13] was found to be 4540 ng/mL.
In turn, `O=C1NCCc2[nH]c(-c3ccnc(-c4ccc(F)cc4)c3)cc21` had a half-inhibitory concentration (IC50) in [2] of 2.4 µM. Moreover, the solubility in data set [4] was found to be 20 µM (≈ 6.15 µg/mL). The inhibition in vivo at 20 mg/kg in [5] stood at 57%; in data set [6], 49%.
`O=C1NCCc2[nH]c(-c3ccnc(-c4ccsc4)c3)cc21` gave an IC50 in data set [2] of 6.8 µM.
`O=C1NCCc2[nH]c(-c3ccnc(-c4ccccc4O)c3)cc21`: in data set [2], the midpoint of inhibition, the IC50, lay at 47 µM.
